Reference: US20230000955A1, “THROMBOMODULIN FUNCTIONAL DOMAINS FOR USE IN PROMOTING OSTEOBLAST FUNCTIONS AND BONE HEALING” (BLUE BLOOD BIOTECH CORP., priority 2019, published 2023)

How the values were obtained:
mice = assay: Calvarial bone defect healing with DCI treatment (μCT, H&E); assay type: in vivo, mouse; conditions: DCI alone
Procedure: FIGS. 8A-F show the effect of the TMD1 and TMD23 on calvarial bone healing. (8A) Cell migration, (8B) proliferation and (8C) mineralization of MG63 cells treated with the indicated dose of rTMD1. (8D) Calvarial bone healing of TM wild-type TM^wt/wt and TM domain 1 (TMD1)-deleted TM^LeD/LeD mice. (8E) μCT scanning and (8F) HE stain were used to evaluate the effect of vehicle, dichloroisocoumarin (DCI) and DCI plus rTMD23 or rTMD1 (100 μg/kg) on bone healing after a calvarial defect was created in mice. N=5 per group. Black bar=100 μm. White bar=1 mm. Dotted line indicates the section region. ***P<0.001.
Calvarial bone defect healing. Male mice were randomly assigned to designated groups. After anesthesia, a 4 mm-diameter defect on the calvaria was created and the wound was sutured. A combination of dichloroisocoumarin (DCI) (1 mM) or rTMD23 (0, 10, 100 μg/kg) and U0126 (20 μM) was subcutaneously injected once near the calvarial bone opening at week 1 after the surgery. Bone healing was monitored radiographically using μCT (Skyscan 1076, Antwerp, Belgium) and histologically at indicated time points (weeks 0 and 8) after the surgery. […] The quantification of the removed and regenerated bone volume (mm^3) performed by a 3D CT analyzer software (CTAN; Skyscan). […]

MC3T3-E1 cells = assay: Proliferation assay (WST-1); assay type: cell-based; conditions: 1% FBS
Procedure: Proliferation assay. MG63 cells were treated with various concentrations of rTMD23 for 1, 4, 7 days. The medium was replaced every 2-3 days. At the end, the amount of living cells in each well was measured with crystal violet assay. The cells in each well were washed by PBS twice right before staining. Crystal violet (0.5%, 300 μL) were added in each well for 15 min, followed by ddH2O rinse at least five times. Acetic acid (10%, 300 μL) were added to dissolute the crystal violet. Then, taking 100 μL/well into a 96 well plate to get an OD595 measurement. A proliferation assay on MC3T3-E1 cells with various concentrations of a variant of TMD23 was performed. Briefly, MC3T3-E1 cells in 96-well plates were treated with rTMD23NA at various concentrations for 1, 3, 5 days. The number of living cells in each well was measured with WST-1 reagent. The cells in each well were washed by DMEM medium twice right before staining with 100 μL of 10% WST-1 in DMEM. The absorption at A450 nm-A690 nm of each well was measured.
Human osteoblast-like cell line MG63 and osteoblast cell line MC3T3-E1 were used in the cell proliferation assay. Briefly, different concentrations of rTMD23 and rTMD23NA, which is a variant form of rTMD23, were respectively added to MG63 or MC3T3-E1 cell culture containing 1% FBS. […] The OD595 of the cell lysate in 10% acetic acid was measured to obtain the relative cell count in each well.

protein C = conditions: cited from earlier work

For `O=c1oc(Cl)c(Cl)c2ccccc12` [DCI, dichloroisocoumarin], the “regeneration of calvarial bone defect (μCT and H&E)” value (mice) was “reduced regeneration of calvarial bone defect”.
In the case of “rTMD23NA: recombinant TMD23 variant with two substitutions Asn364Ala and Asn391Ala, SEQ ID NO: 3 (274aa)”, the “cell proliferation (absorbance, WST-1)” value (MC3T3-E1 cells) is given as “enhance cell proliferation” and the “protein C activation activity” value (protein C) is given as “little or no protein C activation activity”.
